Test [1] has as its target Sodium channel protein type 9 subunit alpha (Homo sapiens) (UniProt Q15858). Briefly: Inhibition of Nav1.7 (unknown origin) expressed in HEK293 cells by automated patch clamp assay. Type of test: cell-based.
In test [2] the target is Sodium channel protein type 11 subunit alpha (Homo sapiens) (UniProt Q9UI33). Briefly: Inhibition of Nav1.9 (unknown origin) expressed in HEK293 cells by automated patch clamp assay. Type of test: cell-based. On the technique in general: Patch clamp records ionic current or voltage across a cell membrane.
Chain of Sodium channel protein type 11 subunit alpha (Homo sapiens) (Q9UI33 whole entry): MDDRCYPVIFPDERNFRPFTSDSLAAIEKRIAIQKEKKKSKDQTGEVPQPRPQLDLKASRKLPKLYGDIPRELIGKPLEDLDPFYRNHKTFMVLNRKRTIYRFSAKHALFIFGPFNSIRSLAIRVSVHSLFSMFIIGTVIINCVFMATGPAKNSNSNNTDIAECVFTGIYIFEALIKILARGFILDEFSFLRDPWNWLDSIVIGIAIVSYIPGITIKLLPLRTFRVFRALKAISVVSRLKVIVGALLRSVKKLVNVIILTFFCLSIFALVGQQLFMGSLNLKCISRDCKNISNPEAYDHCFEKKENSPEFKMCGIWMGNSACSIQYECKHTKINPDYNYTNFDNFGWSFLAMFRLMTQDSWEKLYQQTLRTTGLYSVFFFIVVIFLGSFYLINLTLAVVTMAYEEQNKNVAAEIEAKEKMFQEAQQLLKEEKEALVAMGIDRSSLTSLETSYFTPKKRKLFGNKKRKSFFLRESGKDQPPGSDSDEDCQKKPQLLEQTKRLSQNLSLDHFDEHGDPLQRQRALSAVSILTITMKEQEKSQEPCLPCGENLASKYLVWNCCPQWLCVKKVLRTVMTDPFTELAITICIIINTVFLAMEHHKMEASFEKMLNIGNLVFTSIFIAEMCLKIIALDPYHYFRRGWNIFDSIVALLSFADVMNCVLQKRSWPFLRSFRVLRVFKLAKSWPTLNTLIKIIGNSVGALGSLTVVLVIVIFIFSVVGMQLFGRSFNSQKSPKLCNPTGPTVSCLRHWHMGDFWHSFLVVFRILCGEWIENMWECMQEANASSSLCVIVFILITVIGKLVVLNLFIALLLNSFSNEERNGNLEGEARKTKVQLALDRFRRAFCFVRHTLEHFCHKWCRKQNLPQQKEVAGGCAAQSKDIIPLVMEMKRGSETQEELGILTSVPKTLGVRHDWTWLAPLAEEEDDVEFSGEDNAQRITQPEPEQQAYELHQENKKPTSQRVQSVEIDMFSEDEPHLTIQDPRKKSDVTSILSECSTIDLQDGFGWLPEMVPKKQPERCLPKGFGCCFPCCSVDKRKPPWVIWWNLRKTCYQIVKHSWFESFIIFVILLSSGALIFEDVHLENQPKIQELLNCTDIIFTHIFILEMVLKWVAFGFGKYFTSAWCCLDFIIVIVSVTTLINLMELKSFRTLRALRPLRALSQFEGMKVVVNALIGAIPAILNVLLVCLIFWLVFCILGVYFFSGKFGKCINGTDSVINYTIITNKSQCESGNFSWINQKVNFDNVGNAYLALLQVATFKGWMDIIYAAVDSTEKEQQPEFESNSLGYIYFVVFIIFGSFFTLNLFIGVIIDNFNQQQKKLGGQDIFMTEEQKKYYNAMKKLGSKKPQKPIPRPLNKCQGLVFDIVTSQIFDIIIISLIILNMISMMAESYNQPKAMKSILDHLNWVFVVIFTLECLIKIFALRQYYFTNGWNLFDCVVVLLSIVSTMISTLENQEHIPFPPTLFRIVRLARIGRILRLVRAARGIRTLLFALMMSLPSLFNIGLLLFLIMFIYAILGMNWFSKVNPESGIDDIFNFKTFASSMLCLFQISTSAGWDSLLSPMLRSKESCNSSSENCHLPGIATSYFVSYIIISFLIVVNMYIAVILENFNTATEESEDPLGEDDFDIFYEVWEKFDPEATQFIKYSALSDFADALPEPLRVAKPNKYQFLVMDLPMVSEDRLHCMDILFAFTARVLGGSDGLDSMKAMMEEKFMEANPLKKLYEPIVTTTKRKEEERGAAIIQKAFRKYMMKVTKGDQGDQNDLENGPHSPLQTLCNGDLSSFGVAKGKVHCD

Structures are written as SMILES.

The values below come from ChEMBL document CHEMBL2406968, “Heteroaryl sodium channel inhibitors” (ACS Med Chem Lett, 2013).

Chain of Sodium channel protein type 9 subunit alpha (Homo sapiens) (Q15858 whole entry, looked up): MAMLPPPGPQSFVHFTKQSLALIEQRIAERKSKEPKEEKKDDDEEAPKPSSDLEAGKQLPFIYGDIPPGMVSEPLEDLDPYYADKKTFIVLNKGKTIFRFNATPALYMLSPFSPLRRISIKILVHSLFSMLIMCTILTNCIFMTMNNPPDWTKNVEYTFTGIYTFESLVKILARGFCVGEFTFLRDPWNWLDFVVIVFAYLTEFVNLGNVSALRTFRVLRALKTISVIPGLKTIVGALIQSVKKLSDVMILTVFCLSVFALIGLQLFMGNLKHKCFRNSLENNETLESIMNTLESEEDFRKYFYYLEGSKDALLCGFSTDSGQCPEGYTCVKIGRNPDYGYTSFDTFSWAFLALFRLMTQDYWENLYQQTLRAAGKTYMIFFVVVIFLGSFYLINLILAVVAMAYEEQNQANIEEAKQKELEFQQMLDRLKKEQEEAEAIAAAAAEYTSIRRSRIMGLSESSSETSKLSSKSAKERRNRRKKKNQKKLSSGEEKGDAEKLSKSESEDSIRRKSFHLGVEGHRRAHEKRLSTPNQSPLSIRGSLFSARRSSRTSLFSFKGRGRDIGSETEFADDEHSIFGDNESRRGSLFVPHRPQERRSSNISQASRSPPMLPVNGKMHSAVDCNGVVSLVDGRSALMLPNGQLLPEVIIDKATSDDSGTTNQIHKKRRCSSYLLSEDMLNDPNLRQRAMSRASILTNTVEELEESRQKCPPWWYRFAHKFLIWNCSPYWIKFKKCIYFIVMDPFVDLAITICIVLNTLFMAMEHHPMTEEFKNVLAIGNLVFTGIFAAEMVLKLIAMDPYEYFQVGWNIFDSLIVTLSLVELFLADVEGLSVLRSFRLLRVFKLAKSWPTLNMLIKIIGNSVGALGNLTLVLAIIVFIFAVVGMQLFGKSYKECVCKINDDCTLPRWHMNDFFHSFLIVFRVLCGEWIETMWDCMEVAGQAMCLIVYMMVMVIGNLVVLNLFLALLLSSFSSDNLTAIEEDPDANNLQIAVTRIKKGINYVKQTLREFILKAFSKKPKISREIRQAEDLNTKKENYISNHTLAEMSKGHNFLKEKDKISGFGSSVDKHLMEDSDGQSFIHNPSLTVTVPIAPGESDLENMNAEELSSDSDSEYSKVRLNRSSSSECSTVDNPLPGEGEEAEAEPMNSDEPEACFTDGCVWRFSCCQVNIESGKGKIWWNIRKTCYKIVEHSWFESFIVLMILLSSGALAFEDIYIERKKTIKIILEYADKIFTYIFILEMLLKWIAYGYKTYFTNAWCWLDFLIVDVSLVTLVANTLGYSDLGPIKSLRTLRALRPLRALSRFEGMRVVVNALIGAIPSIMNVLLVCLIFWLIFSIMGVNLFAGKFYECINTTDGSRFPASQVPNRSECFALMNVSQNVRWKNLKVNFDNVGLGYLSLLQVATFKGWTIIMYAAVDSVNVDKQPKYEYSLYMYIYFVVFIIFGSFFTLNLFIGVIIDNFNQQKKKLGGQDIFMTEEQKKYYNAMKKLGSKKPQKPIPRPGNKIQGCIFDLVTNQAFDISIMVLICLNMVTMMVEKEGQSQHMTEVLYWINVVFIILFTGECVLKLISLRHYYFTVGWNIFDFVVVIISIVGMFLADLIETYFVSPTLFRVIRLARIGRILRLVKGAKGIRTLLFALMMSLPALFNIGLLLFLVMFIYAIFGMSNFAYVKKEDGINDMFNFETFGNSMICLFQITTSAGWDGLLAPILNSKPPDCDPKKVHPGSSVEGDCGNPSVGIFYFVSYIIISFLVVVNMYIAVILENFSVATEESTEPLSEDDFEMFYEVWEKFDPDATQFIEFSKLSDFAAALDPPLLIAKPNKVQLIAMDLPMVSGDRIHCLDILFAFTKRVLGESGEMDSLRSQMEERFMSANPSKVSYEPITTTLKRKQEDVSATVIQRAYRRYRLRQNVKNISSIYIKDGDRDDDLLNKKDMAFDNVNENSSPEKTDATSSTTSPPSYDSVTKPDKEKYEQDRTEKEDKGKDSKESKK

Take `Cn1nccc1-c1cc(Cl)ccc1-c1cn(C)c2cc(S(=O)(=O)Nc3ncns3)ccc12`: the INH in test [1] is 0.253 µM; in test [2], > 10 µM.

For the compound `Cn1cc(-c2cccc3ccccc23)c2ccc(S(=O)(=O)Nc3ncns3)cc21`, the INH in test [1] was 0.306 µM; in test [2], > 10 µM.

On to `CC(=O)n1cc(-c2ccc(C(F)(F)F)cc2-c2ccnn2C)c2ccc(S(=O)(=O)Nc3ncns3)cc21`, for which the INH is 0.0505 µM in test [1] and > 10 µM in test [2].

Consider `Cn1nccc1-c1cc(C(F)(F)F)ccc1-c1cn(C)c2cc(S(=O)(=O)Nc3ncns3)ccc12`, for which the INH in test [1] was 0.147 µM; in test [2], > 10 µM.

Turning to `Cn1cc(-c2cccc3c2CCNC3)c2ccc(S(=O)(=O)Nc3ncns3)cc21`, the values for the INH in test [1] and in test [2] were 0.292 µM and > 10 µM, respectively.

`Cn1cc(-c2ccc(C(F)(F)F)cc2-c2ccncc2)c2ccc(S(=O)(=O)Nc3ncns3)cc21`: the values for the INH in test [1] and in test [2] were 0.05 µM and > 10 µM, respectively.

`Cn1cc(-c2ccc(C(F)(F)F)cc2-c2ccnn2C2CNC2)c2ccc(S(=O)(=O)Nc3ncns3)cc21`: the values for the INH in test [1] and in test [2] were 0.263 µM and > 10 µM, respectively.

Take `Cn1cc(-c2ccc(C(F)(F)F)cc2C2=CCNCC2)c2ccc(S(=O)(=O)Nc3ncns3)cc21`: the results for the INH in test [1] and in test [2] were 0.0425 µM and > 10 µM, respectively.

For `Cn1cc(-c2ccc(C(F)(F)F)cc2-c2ccn[nH]2)c2ccc(S(=O)(=O)Nc3ncns3)cc21`, the INH is 0.0375 µM in test [1] and > 10 µM in test [2].
